Among the data in patent US11999715B2, “ASK1 inhibiting agents” (BIOGEN MA INC., priority 2018, dated 2024) are Kp uu and IC50 values, retold here.

SMILES strings stand for the structures.

The nature of data set [1]: In vivo brain penetration, rat Kpuu study. To be noted: brain and plasma (unbound concentrations), IV infusion for four hours (1 mg/kg) to steady state, Kpuu=Cu,b/Cu,p.
Protocol: Example 113: In Vivo Brain Penetration To evaluate the CNS penetration of the compounds described herein, several compounds were selected for in vivo rat Kpuu studies. In these experiments the compounds are administered via an IV infusion (using N,N-dimethylacetamide:ethanol:1,2-propylene glycol:water in a 1:1:3:5 ratio as the vehicle) in the carotid artery for a period of four hours (1 mg/kg, 0.1 mg/mL) to reach steady state. After this time the plasma and brain concentration levels are quantified, and the values are adjusted by the measured protein binding in plasma and brain homogenate to calculate the Kpuu (see Di, […] . Blood-Brain Barrier in Drug Discovery (Wiley)) according to the equation below. Kpuu=Cu,b/Cu,p Wherein: • Cu,b=Unbound concentration in brain (C×fu,b). (C=concentration at steady state; fu,b=fraction unbound in brain) • And in which: Cu,p=Unbound concentration in plasma (C×fu,p). (C=concentration at steady state; fu,p=fraction unbound in plasma) Plasma and brain protein binding values were generated via the Rapid Equilibrium Dialysis method. The compound of interest was incubated in K2EDTA plasma and brain homogenate (homogenized 1:7 (w:v) in 1×PBS) purchased from BioIVT (Westbury, NY), opposite a buffered compartment of 100 mM Potassium phosphate/150 mM Sodium chloride, pH 7.4, at 1 μM for 4 hr and 6 hr respectively. At the conclusion of incubation samples were taken from both matrix and buffered compartments, matrix-matched using blank buffer and matrix, extracted with acetonitrile, diluted with water, and analyzed utilizing an Agilent RapidFire 365 high-throughput LC coupled with MS/MS detection via an AB Sciex 5500. Free fractions (fu) were then calculated by comparing internal standard/analyte peak-area ratios of matrix and buffered compartments. […] Total drug concentration in plasma and brain tissue was measured via well-established bioanalytical extraction (protein precipitation) and detection methods (LC-MS/MS).
Data set [2] deals with T1, ASK1/MAP3K5 (Homo sapiens, UniProt Q99683).
T1 sequence (Q99683 1-1374): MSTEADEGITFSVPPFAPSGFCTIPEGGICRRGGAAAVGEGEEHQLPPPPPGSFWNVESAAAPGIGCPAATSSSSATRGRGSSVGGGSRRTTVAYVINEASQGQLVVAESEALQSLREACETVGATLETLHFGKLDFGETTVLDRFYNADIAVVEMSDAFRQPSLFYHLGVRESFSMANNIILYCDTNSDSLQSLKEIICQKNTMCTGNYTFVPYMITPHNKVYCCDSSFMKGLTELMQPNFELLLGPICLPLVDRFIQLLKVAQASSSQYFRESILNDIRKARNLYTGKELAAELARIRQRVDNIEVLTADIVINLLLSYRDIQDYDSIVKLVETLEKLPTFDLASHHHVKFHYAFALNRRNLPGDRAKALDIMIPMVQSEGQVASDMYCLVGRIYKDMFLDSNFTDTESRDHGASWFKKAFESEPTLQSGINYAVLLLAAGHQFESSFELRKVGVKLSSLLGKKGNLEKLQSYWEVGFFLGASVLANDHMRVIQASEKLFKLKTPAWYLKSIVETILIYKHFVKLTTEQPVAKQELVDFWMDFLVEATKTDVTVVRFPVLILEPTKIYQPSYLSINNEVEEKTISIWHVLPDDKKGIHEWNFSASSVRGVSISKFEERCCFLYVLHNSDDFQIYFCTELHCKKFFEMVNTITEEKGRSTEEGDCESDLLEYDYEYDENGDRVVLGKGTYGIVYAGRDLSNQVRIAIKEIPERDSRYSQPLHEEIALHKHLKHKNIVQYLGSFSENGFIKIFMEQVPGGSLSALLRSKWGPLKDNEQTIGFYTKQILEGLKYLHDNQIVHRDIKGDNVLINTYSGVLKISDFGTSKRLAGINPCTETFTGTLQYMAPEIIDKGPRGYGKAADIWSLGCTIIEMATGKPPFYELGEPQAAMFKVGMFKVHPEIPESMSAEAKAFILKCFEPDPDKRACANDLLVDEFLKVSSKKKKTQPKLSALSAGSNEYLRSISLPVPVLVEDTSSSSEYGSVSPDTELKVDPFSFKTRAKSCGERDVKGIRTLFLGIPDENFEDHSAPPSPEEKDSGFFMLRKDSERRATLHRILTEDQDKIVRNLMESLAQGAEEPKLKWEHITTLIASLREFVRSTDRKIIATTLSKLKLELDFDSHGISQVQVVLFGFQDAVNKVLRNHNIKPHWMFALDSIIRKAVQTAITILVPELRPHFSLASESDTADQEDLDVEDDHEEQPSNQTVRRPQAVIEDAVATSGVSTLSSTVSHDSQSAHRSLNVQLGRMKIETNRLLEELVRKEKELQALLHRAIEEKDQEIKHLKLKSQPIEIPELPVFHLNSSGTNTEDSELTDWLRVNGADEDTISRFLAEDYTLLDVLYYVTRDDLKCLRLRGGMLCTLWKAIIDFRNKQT
The data set is described as follows: ASK1/MAP3K5 kinase assay by Reaction Biology Corp. (headed ASK1 TR-FRET Assay). The class given is biochemical. To be noted: 20 μM myelin basic protein, 10 μM ATP, class symbols. In a few lines:
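Radiometric filter-binding assay with ASK1/MAP3K5, 20 μM MBP substrate and 10 μM ATP plus ^33P-ATP in HEPES pH 7.5 buffer with 1% DMSO. Compounds were preincubated with kinase 20 min, and the reaction then ran 2 hours at room temperature.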
For orientation: TR-FRET usually uses a lanthanide donor and a delayed reading to cut background.

In data set [3] the target is T2, ASK1 T838 auto phosphorylation (Homo sapiens, UniProt Q99683).
T2 sequence (Q99683 1-1374): T1 sequence (Q99683 1-1374)
The data set is described as follows: ASK1 (AUTO PHOS T838) assay, MSD format, in HEK-293T cells transfected with ASK1-V5. The class given is cell-based. To be noted: ASK1 T838 auto phosphorylation in HEK-293T cells, 1 hr compound incubation; class symbols. Put shortly:
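HEK-293T cells transiently transfected with full-length ASK1-V5 plasmid were replated, then treated 1 h at 37 °C with a 10-point, 3-fold series from 20 μM. Lysates were probed by MSD with anti-pASK1 T838 and a sulfo-tag secondary, read by chemiluminescence. IC50 came from a 4-parameter fit of normalized % activity.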

The IC50 is the concentration that gives 50% inhibition. In turn, `C[C@@H](n1cnnc1-c1cccc(NC(=O)c2cn(C)nc2C(F)F)n1)C(F)(F)F` [Example 23, (R)-3-(Difluoromethyl)-1-methyl-N-(6-(4-(1,1,1-trifluoropropan-2-yl)-4H-1,2,4-triazol-3-yl)pyridin-2-yl)-1H-pyrazole-4-carboxamide] registered a Kp uu at 4 h in data set [1] of 0.14. In addition, the values for the IC50 in data set [2] and in data set [3] were at most 100 nM and at most 1000 nM, respectively.
For `C=CCn1cc(C(=O)Nc2cccc(-c3nncn3C(C)C(F)(F)F)n2)c(OC)n1` (stereo not drawn) [Example 56, 1-Allyl-3-methoxy-N-(6-(4-(1,1,1-trifluoropropan-2-yl)-4H-1,2,4-triazol-3-yl)pyridin-2-yl)-1H-pyrazole-4-carboxamide], the Kp uu at 4 h in data set [1] came to 0.33. The values for the IC50 in data set [2] and in data set [3] were at most 100 nM and at most 1000 nM, respectively.
